Experimental data from patent US20030198617A1, “Pharmaceutical tryptophan containing dipeptide compositions and methods of use thereof” (priority 1993, published 2003).
Marks after values point to notes of the source that are not given here.

How the values were obtained:
T-cells = assay: T-cell rosette assay; format: cell-based; conditions: 10^6 cells per ml
[1] = Immune status in early terms after irradiation; format: in vivo, human; conditions: after IM862 therapy
Method: The patients described in Example 42 were tested for blood parameters the first few days after exposure to the radiation of the Chernobyl accident. It could be seen from Table 3 below that response to the treatment was observed even after a few weeks of treatment.

[2] = Acute radiation sickness, 6 months after accident, blood parameters; format: in vivo, human; conditions: after therapy with IM862
Method: The patients described above in Example 47 were tested for blood parameters after 6 months of treatment immediately following exposure to the radiation caused by the Chernobyl accident.

[3] = Spontaneous tumorigenesis, experimental models; format: in vivo; conditions: IM862 prophylactically
Post-term women = format: in vivo, human; conditions: IM862 IM or intranasally over 3-5 days, 19 women
Method: A total of 19 post-term women and 48 women post-term in the control study were treated.

[4] = Young sportsmen, upper respiratory infections; format: in vivo, human; conditions: IM862 intranasally 1 μg/kg, 3 days, 84 sportsmen
Description: The control group consisted of 44 persons.

[5] = Resistance to excessive solar radiation in hot marine climates; format: in vivo, human; conditions: IM862 intranasally 100 μg 3 days, 27 persons
Method: The control group comprised 24 persons. The administration was intranasally 100 μg for 3 days. […] There was also noted suppression of their immunologic indices.

[6] = Infected patients (Example 96); format: in vivo, human; conditions: IM862 100 μg 5-10 days, 36 patients
Description: A total of 36 patients infected and 24 patients infected were controls.

Thymectomized patients = format: in vivo, human; conditions: IM862 100 μg daily 10 days, repeated every 4-6 months, 12 patients
Description: Prior to therapy these individuals had experienced frequent serious infections including upper respiratory infections.

hemorrhagic Dengue Fever = assay: Hemorrhagic Dengue Fever study, duration of symptoms; format: in vivo, human; conditions: IM862 administered
Method: All those examined were representatives of organized collectives and had the same type of working and living conditions prior to the onset of illness. The patients were referred to in-patient treatment to the 175th Military Hospital in Ho Chi Minh City during an epidemic of Dengue fever in southern Socialist Republic of Vietnam.
Diagnoses of HDF were established by criteria recommended by the WHO (1986). Serological analyses were performed at the Arbovirus Infections Laboratory of the Pasteur Institute (Ho Chi Minh City). Disease severity was 1-2 in all patients.
The patients were divided into one group treated with IM862 and one group not receiving IM862. […] The efficacy of therapy was determined by observation of the duration of the most frequently encountered signs and symptoms of the disease (Table 14).

[7] = Psoriasis study (Example 108); format: in vivo, human; conditions: during treatment
Method: A comparative study of immunological, coagulation, and acute phase protein parameters was conducted on 30 patients with disseminated forms of psoriasis on normal treatment. Twenty-seven patients had widespread lesions of the smooth skin and scalp; two had psoriatic erythroderma. The period of illness in the majority of those examined exceeded 5 years. In two persons the nail plates were involved in the form of a “thimble” symptom.
Patients were treated under identical conditions and received therapy of vitamins B12, B6, and A, folic acid, pyrogens, sedatives, and desensitizing preparations. Salidol ointment and 3-5% sulfur-salicylic ointments were used locally.
Basic immunological and coagulation assays were conducted on all patients. The findings obtained were compared with the results of investigations done on healthy people between the ages of 18-40 years. […] At the same time, a drop is noted in the quantity of T-lymphocytes, a decrease in the level of T-helpers and suppressors, and a growth in the concentrations of IgA, M, and to a lesser degree, IgG.

Glu-Trp [IM862]
concentration of peak effect for rosette activity (T-cells): approximately 0.0006 mcg/ml | C3 [1]: 0.68 ± 0.04 g/L | CD2, % [1]: 50.9 ± 2.4% | CD2, abs [1]: 1.13 ± 0.07** 10^9/l | CD2-DR+, % [1]: 31 ± 3 % | CD2-DR+, abs [1]: 0.69 ± 0.08** 10^9/l | CD19, % [1]: 30.5 ± 1.9 % | CD19, abs [1]: 0.68 ± 0.04** 10^9/l | E-RFC, % [1]: 23.4 ± 2.6% | IgA [1]: 1.11 ± 0.09 g/L | IgG [1]: 9.2 ± 0.7 g/L | IgM [1]: 0.58 ± 0.10 g/L | LMI with ConA, % [1]: 60 ± 7 % | Leukocytes, abs [1]: 6.4 ± 0.8** 10^9/l | Lymphocytes, abs [1]: 2.27 ± 0.16** 10^9/l | B-Ig+, % [2]: 19.0 ± 1.3 % | B-Ig+, abs [2]: 0.29 ± 0.03 10^9/liter | B-IgA+, % [2]: 1.8 ± 0.3% | B-IgA+, abs [2]: 0.030 ± 0.002 10^9/liter | B-IgG+, % [2]: 6.4 ± 0.5 % | B-IgG+, abs [2]: 0.100 ± 0.007 10^9/liter | B-IgM+, % [2]: 8.8 ± 0.7% | B-IgM+, abs [2]: 0.13 ± 0.02 10^9/liter | CD2, % [2]: 49 ± 3 % | CD3, % [2]: 53.4 ± 1.8 % | CD3, abs [2]: 0.82 ± 0.04** 10^9/liter | CD4, % [2]: 32.6 ± 1.4 % | CD4, abs [2]: 0.50 ± 0.04* 10^9/liter | CD19, % [2]: 26.7 ± 2.1% | CD19, abs [2]: 0.041 ± 0.03** 10^9/liter | CDS, % [2]: 21.2 ± 1.8% | CDS, abs [2]: 0.32 ± 0.03 10^9/liter | IgA [2]: 1.8 ± 0.9 g/L | IgG [2]: 10.9 ± 1.1 g/L | IgM [2]: 1.07 ± 0.09 g/L | LMI [2]: 72.7 ± 4.5 | Lymphocytes % [2]: 30.0 ± 1.8% | Lymphocytes, abs [2]: 1.52 ± 0.12* 10^9/liter | T4/T8 [2]: 1.54 ± 0.11 | spontaneous tumorigenesis [3]: diminished frequency of spontaneous tumorigenesis | clinical effect (Post-term women): effacement of the cervix | reduction of upper respiratory infections and rates of illness [4]: 4 fold | clinical effect [5]: prevented the occurrence of upper respiratory infections | clinical effect [6]: reduction of fever | clinical effect (Thymectomized patients): normalization of immunologic indices | Duration of Abdominal pain (hemorrhagic Dengue Fever): 7.7 ± 1.1 days | Duration of Anorexia (hemorrhagic Dengue Fever): 7.5 ± 0.8 days | Duration of Headaches (hemorrhagic Dengue Fever): 8.1 ± 0.9 days | Duration of Hepatomegaly (hemorrhagic Dengue Fever): 11.3 ± 0.8 days | Duration of Insomnia (hemorrhagic Dengue Fever): 7.1 ± 0.7 days | Duration of Joint pain (hemorrhagic Dengue Fever): 7.4 ± 0.7 days | Duration of Low back pain (hemorrhagic Dengue Fever): 8.1 ± 0.8 days | Duration of Lumbar pain (hemorrhagic Dengue Fever): 8.7 ± 0.7 days | Duration of Ophthalmalgia (hemorrhagic Dengue Fever): 6.6 ± 0.8 days | Duration of Splenomegaly (hemorrhagic Dengue Fever): 9.6 ± 0.7 days | Duration of Weakness/fatigue (hemorrhagic Dengue Fever): 9.3 ± 0.8 days | Duration of Fever, Prescription 2-4 days (hemorrhagic Dengue Fever; total dose 500 μg): 4.7 ± 0.2 days | Duration of Fever, Prescription 2-6 days (hemorrhagic Dengue Fever; total dose 500 μg): 5.2 ± 0.3 days | clinical status and immunological parameters [7]: improvement in clinical status and normalization of immunological parameters
